The values that follow come from PMC2765508 (Biochemistry, 2009).

Data set [1] has as its system MP1 (metallopeptidase 1, mammalian pitrilysin). The data set can be described thus: purified recombinant human MP1.
For data set [2], the target named is T1, human MP1 (Homo sapiens, UniProt Q5JRX3).
T1 sequence (Q5JRX3 29-1037): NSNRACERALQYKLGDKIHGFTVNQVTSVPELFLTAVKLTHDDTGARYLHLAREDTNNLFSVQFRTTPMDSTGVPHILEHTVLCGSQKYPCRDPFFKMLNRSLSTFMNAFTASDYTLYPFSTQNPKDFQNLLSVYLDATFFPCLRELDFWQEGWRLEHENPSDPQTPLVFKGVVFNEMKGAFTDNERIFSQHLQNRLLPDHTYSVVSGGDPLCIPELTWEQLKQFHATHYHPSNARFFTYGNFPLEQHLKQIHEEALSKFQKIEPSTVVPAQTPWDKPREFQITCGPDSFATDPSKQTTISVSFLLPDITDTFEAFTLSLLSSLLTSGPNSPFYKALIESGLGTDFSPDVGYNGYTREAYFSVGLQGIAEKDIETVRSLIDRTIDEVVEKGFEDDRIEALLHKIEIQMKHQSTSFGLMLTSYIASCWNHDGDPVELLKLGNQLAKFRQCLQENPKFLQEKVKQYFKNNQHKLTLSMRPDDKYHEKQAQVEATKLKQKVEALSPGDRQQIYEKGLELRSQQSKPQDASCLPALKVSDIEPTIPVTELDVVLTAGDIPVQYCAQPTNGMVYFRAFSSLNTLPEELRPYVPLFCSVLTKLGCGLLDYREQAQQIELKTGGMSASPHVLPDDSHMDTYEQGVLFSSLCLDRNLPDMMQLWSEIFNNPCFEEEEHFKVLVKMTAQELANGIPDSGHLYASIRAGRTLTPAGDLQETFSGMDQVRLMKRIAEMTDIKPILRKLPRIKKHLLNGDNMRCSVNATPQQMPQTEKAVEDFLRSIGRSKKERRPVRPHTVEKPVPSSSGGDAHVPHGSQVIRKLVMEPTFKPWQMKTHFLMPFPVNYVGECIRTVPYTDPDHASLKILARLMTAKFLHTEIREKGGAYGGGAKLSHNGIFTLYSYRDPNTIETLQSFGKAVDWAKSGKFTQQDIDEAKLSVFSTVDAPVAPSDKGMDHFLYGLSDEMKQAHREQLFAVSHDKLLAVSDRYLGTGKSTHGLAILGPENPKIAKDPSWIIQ
Type of data set: biochemical. As to conditions: for kcat/Km: from kcat (HPLC) and Km (alternate substrate inhibition).

The test system of data set [3] is protease III. Conditions: cited from earlier work.
Data set [4] relates to insulysin. As to conditions: cited from earlier work.
Data set [5] relates to nardilysin. Conditions: cited from earlier work.
Data set [6] concerns MP1. The data set can be described thus: 2 μg of MP1 in 25 mM Tris buffer, pH 7.5. As to conditions: human.
Data set [7] deals with T1, human MP1. Type of data set: biochemical. As to conditions: 27 amino acid citrate synthase presequence peptide as MP1 substrate.

Entries after “also recorded” stand apart in the source; their conditions may differ.

As to YGGFL, the cleaved bond result in data set [1] is given as “Y-G, first_seen”.

Consider “Y↓ADAIFTNSYRKVLG▼QLS▼ARKL↓QDIMQQGESNQERGA [Growth Hormone Releasing factor]”, for which, in data set [2], the kcat/Km was 29.4 ± 3.4 M × min^−1 × 10^5.

Consider Insulin, for which, in data set [2], the kcat/Km was 0.03 ± 0.00 M × min^−1 × 10^5.

For the substance RPPG▼FSPFR [Bradykinin], in data set [2], the kcat/Km turned out to be 21.8 ± 1.2 M × min^−1 × 10^5. The “cleavage by protease III” value in data set [3] was “not cleaved”. Also, the cleavage by insulysin result in data set [4] is “not cleaved”. Also, in data set [5], the cleavage by nardilysin result is “not cleaved”.

Consider “YGG↓F↓MTSEKSETPLV↓T↓L▼FKNA▼IIKNAYKKGE [β-endorphin]”, for which the kcat/Km in data set [2] was determined as 62.6 ± 5.1 M × min^−1 × 10^5.

Consider Y↓GGFLRRQF↓K▼VVT [Dynorphin B], for which, in data set [2], the kcat/Km turned out to be 46.3 ± 6.8 M × min^−1 × 10^5.

For “CGNLSTC▼MLG▼TYTQDFNK↓FHTFPQTAIGVGAP [Calcitonin]”, the kcat/Km in data set [2] is recorded as 15.4 ± 0.6 M × min^−1 × 10^5.

As to CGNLSTCMLGTYTQDFNKFHTFPQTAIGVGAP, in data set [1], the cleaved bond result is recorded as “C-M, first_seen; also recorded: G-T, first_seen; also recorded: K-F, minor”.

Consider YGGFLRRQFKVVT, for which the cleaved bond entry in data set [1] is “Y-G, minor; also recorded: F-K, minor; also recorded: K-V, first_seen”.

For “Y↓GGFLRRQFK↓VVT↓RSQED▼PNAYYEEL▼FDV [Leumorphin (porcine), Leumorphin]”, in data set [2], the kcat/Km is given as 63.5 ± 4.5 M × min^−1 × 10^5.

For YGGFMTSEKSETPLVTLFKNAIIKNAYKKGE, the cleaved bond result in data set [6] is reported as “Phe-M, minor; also recorded: Thr16-Leu17, minor; also recorded: Pro13-Leu14, minor; also recorded: Leu14-Val15, minor”.

For the substance Y↓GGFLRR↓IRP▼KLKWDNQ [Dynorphin A], in data set [2], the kcat/Km is 62.6 ± 6.8 M × min^−1 × 10^5.

Regarding “SLRRSSCFGGRMD▼RIGAQSGLGCNS▼FRY (disulfide) [Atrial natriuretic peptide]”, the kcat/Km in data set [2] is listed as 199.2 ± 18.6 M × min^−1 × 10^5.

For RPKPQQFFGLM, the cleaved bond result in data set [1] is given as “F-F, minor; also recorded: G-L, first_seen”.

With RPKPQQF↓FG▼LM [Substance P], the kcat/Km in data set [2] is on record as 23.6 ± 2.5 M × min^−1 × 10^5.

For the substance YGGFLRRIRPKLKWDNQ, the cleaved bond entry in data set [1] is “R-I, minor; also recorded: P-K, first_seen; also recorded: Y-G, minor”.

As for YGGFL [Leu-enkephalin], in data set [2], the kcat/Km came out at 18.7 ± 2.1 M × min^−1 × 10^5.

As for “DAEFRHDSGYEVHHQKLVFF▼AEDVGSNKGAIIGL↓MVGGVV [β-Amyloid (1–40)]”, in data set [2], the kcat/Km was 19.5 ± 1.1 M × min^−1 × 10^5.

Take “MALLTAAARLFGAKNASCLVLAARHAS-NH2 [citrate synthase presequence peptide]”: the Km in data set [7] is 170 nM. Further, the turnover number (kcat) in data set [2] (27 amino acid citrate synthase presequence peptide as MP1 substrate) was 1.1 min⁻¹.

For Angiotensin I, the kcat/Km in data set [2] is recorded as 44.6 ± 4.3 M × min^−1 × 10^5. Besides, in data set [3], the “cleavage by protease III” value is “not cleaved”. Also, in data set [4], the cleavage by insulysin entry was “not cleaved”. In addition, the cleavage by nardilysin result in data set [5] is “not cleaved”.

Regarding Somatostatin, in data set [2], the kcat/Km was found to be 41.7 ± 3.8 M × min^−1 × 10^5.

For YADAIFTNSYRKVLGQLSARKLQDIMQQGESNQERGA, the cleaved bond entry in data set [1] was “Y-A, minor; also recorded: G-Q, first_seen; also recorded: S-A, first_seen”.

Consider SLRRSSCFGGRMDRIGAQSGLGCNSFRY, for which the cleaved bond result in data set [1] is given as “D-R, first_seen; also recorded: S-F, first_seen”.
